Experimental data published in US20140322360A1, “METHOD AND DEVICE FOR ATTRACTING BLOOD-SUCKING ARTHROPODS” (BIOGENTS AG, priority 2011, published 2014).

System: female mosquitoes
Experiment: Y-olfactometer test of attractiveness (activation and orientation of mosquitoes)
Assay type: in vivo
Conditions: A0, B0, C0 together, regardless of the CO2 concentration used
Excerpt: Olfactometer tests are particularly useful during product development. They are used to filter out the most promising candidate substances from a number of interesting attractants or repellents quickly and cost-effectively. In particular, the olfactometer 60 has the form of a “Y”. A cage with piercing joyful female mosquitoes is connected to the lower end 62 of the “Y” of the air conditioned tubular system of the olfactometer 60. The two arms 64 and 65 of the “Y” each include the control chamber 70 and test chamber 72. Air L flows through both chambers 70, 72 and is then combined in the base leg 66 of the “Y”. During the phase when the stimulus is given, the test mosquitoes can fly into the direction of movement B into the olfactometer 60 and choose between the test chamber 72 with air containing the stimulus and the control chamber 70 containing clean air. Air L flows through the olfactometer 60 in the direction opposite to the direction of movement B of the mosquitoes, the air L being entrained with the attractant from the test chamber 72. Firstly, the activation or mobilization of the test mosquitoes is determined. This refers to a non-directional fly away of the mosquitoes when a stimulus is given. […] Then the orientation is further determined by counting the number of mosquitoes in the test chamber 72. […]

O=C=O [CO2]
directional orientation Y: about 50% | undirected activation X: about 83%
